For this assay, the target named is recombinant Mcl-1 (residues 172-327) (Homo sapiens (Human), UniProt Q07820). Briefly: Fluorescence polarization anisotropy competition assay (FITC-Bak or FITC-Bim BH3 peptide) with Mcl-1. Conditions: Table 2, FITC-Bak or FITC-Bim peptide competition, Ki converted from IC50, read-out: Ki for Inhibition of Mcl-1. Type of assay: binding.

Like-named read-outs stand apart in the source and are kept apart here. Bounds are passed on as bounds.

recombinant Mcl-1 (residues 172-327), sequence (Q07820 172-327): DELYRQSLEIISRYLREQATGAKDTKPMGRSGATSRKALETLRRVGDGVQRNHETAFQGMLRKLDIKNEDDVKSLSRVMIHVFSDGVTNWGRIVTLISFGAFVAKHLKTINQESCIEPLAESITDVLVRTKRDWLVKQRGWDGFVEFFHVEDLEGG

Turning to `Cc1cc(OCCCc2c(C(=O)N3CCN(c4ccccc4)CC3)[nH]c3ccccc23)cc(C)c1Cl` [I-46, (3-(3-(4-chloro-3,5-dimethylphenoxy)propyl)-1H-indol-2-yl)(4-phenylpiperazin-1-yl)methanone], the Ki (Ki bins given in μM) fell in the range of 1 to 9.99 µM. Turning to `Cc1cc(OCCCc2c(C(=O)NCCC(=O)NS(=O)(=O)c3cccc(C#N)c3)[nH]c3ccccc23)cc(C)c1Cl` [I-19, 3-(3-(4-chloro-3,5-dimethylphenoxy)propyl)-N-(3-((3-cyanophenyl)sulfonamido)-3-oxopropyl)-1H-indole-2-carboxamide], the Ki (Ki bins given in nM) fell in the range of 0.101 to 0.299 µM. Take `Cc1cc(OCCCc2c(C(=O)NCCc3c(C)n(C)c4ccccc34)[nH]c3ccccc23)cc(C)c1Cl` [I-44, 3-(3-(4-chloro-3,5-dimethylphenoxy)propyl)-N-(2-(1,2-dimethyl-1H-indol-3-yl)ethyl)-1H-indole-2-carboxamide]: under “Ki bins given in μM”, the Ki was in the range of 1 to 9.99 µM. Still for that read-out and setting: as for `CCOC(=O)CCNC(=O)c1[nH]c2ccccc2c1CCCOc1cc(C)c(Cl)c(C)c1` [I-10, ethyl 3-(3-(3-(4-chloro-3,5-dimethylphenoxy)propyl)-1H-indole-2-carboxamido)propanoate], the figure is 10 to 50 µM.

Take `Cc1cc(OCCCc2c3n(c4c(-c5c(C)nn(C)c5C)c(Cl)ccc24)CCCN(c2cc(CN(C)C)cc(C(=O)O)c2)C3=O)cc(C)c1Cl` [I-226, 3-(8-chloro-11-(3-(4-chloro-3,5-dimethylphenoxy)propyl)-1-oxo-7-(1,3,5-trimethyl-1H-pyrazol-4-yl)-4,5-dihydro-1H-[1,4]diazepino[1,2-a]indol-2(3H)-yl)-5-((dimethylamino)methyl)benzoic acid]: for the setting “Ki bins given in nM”, the Ki was less than 0.05 µM. Consider `Cc1cc(OCCCc2c(C(=O)N3CCN(c4ccc(C(=O)O)cn4)CC3)[nH]c3c(-c4c(C)nn(C)c4C)c(Cl)ccc23)cc(C)c1Cl` [I-344, 6-(4-(6-chloro-3-(3-(4-chloro-3,5-dimethylphenoxy)propyl)-7-(1,3,5-trimethyl-1H-pyrazol-4-yl)-1H-indole-2-carbonyl)piperazin-1-yl)nicotinic acid], for which, for the setting “Ki bins given in nM”, the Ki was less than 0.05 µM. Same read-out and setting: as for `Cc1cc(OCCCc2c(C(=O)NCc3ccc(C(=O)N[C@@H](Cc4ccccc4)C(=O)O)o3)[nH]c3c(-c4c(C)nn(C)c4C)cccc23)cc(C)c1Cl` [I-271, (5-((3-(3-(4-chloro-3,5-dimethylphenoxy)propyl)-7-(1,3,5-trimethyl-1H-pyrazol-4-yl)-1H-indole-2-carboxamido)methyl)furan-2-carbonyl)-L-phenylalanine], the figure is less than 0.05 µM; as for `Cc1cc(OCCCc2c3n(c4c(-c5c(C)nn(C)c5C)c(Cl)ccc24)CCN(c2ccc(C(=O)O)cc2)C3=O)cc(C)c1Cl` [I-176, 4-(7-chloro-10-(3-(4-chloro-3,5-dimethylphenoxy)propyl)-1-oxo-6-(1,3,5-trimethyl-1H-pyrazol-4-yl)-3,4-dihydropyrazino[1,2-a]indol-2(1H)-yl)benzoic acid], less than 0.05 µM.

`Cc1cc(OCCCc2c(C(=O)NC3CCN(C(=O)C(=O)O)CC3)[nH]c3c(-c4c(C)nn(C)c4C)cccc23)cc(C)c1Cl` [I-319, 2-(4-(3-(3-(4-chloro-3,5-dimethylphenoxy)propyl)-7-(1,3,5-trimethyl-1H-pyrazol-4-yl)-1H-indole-2-carboxamido)piperidin-1-yl)-2-oxoacetic acid]: the Ki (Ki bins given in nM) is less than 0.05 µM. `Cc1cc(OCCCc2c(C(=O)NCc3cccc(C(=O)NCc4ccccc4)c3)[nH]c3c(-c4c(C)n[nH]c4C)cccc23)cc(C)c1Cl` [I-64, N-(3-(benzylcarbamoyl)benzyl)-3-(3-(4-chloro-3,5-dimethylphenoxy)propyl)-7-(3,5-dimethyl-1H-pyrazol-4-yl)-1H-indole-2-carboxamide]: the Ki (Ki bins given in μM) fell in the range of 10 to 50 µM.

`Cc1cc(OCCCc2c3n(c4c(-c5c(C)nn(C)c5C)c(Cl)ccc24)CCCN(CC(=O)N[C@@H](Cc2ccccc2)C(=O)O)C3=O)cc(C)c1Cl` [I-305, (2-(8-chloro-11-(3-(4-chloro-3,5-dimethylphenoxy)propyl)-1-oxo-7-(1,3,5-trimethyl-1H-pyrazol-4-yl)-4,5-dihydro-1H-[1,4]diazepino[1,2-a]indol-2(3H)-yl)acetyl)-L-phenylalanine]: the Ki (Ki bins given in nM) is less than 0.05 µM. Take `Cc1cc(OCCCc2c(C(=O)NCc3cccc(OC(F)(F)F)c3)[nH]c3c(-c4c(C)nn(C)c4C)cccc23)cc(C)c1Cl` [I-264, 3-(3-(4-chloro-3,5-dimethylphenoxy)propyl)-N-(3-(trifluoromethoxy)benzyl)-7-(1,3,5-trimethyl-1H-pyrazol-4-yl)-1H-indole-2-carboxamide]: the Ki (Ki bins given in μM) was 1 to 9.99 µM. Take `Cc1cc(OCCCc2c(C(=O)N[C@@H]3CCCN(C(=O)C(=O)O)C3)[nH]c3c(-c4c(C)nn(C)c4C)c(Cl)ccc23)cc(C)c1Cl` [I-327, (R)-2-(3-(6-chloro-3-(3-(4-chloro-3,5-dimethylphenoxy)propyl)-7-(1,3,5-trimethyl-1H-pyrazol-4-yl)-1H-indole-2-carboxamido)piperidin-1-yl)-2-oxoacetic acid]: under “Ki bins given in nM”, the Ki was less than 0.05 µM. On the same count and under the same terms, the result for `Cc1ccc(N2CCCn3c(c(CCCOc4cc(C)c(Cl)c(C)c4)c4ccc(Cl)c(-c5c(C)nn(C)c5C)c43)C2=O)cc1C(=O)O` [I-98, 5-(8-chloro-11-(3-(4-chloro-3,5-dimethylphenoxy)propyl)-1-oxo-7-(1,3,5-trimethyl-1H-pyrazol-4-yl)-4,5-dihydro-1H-[1,4]diazepino[1,2-a]indol-2(3H)-yl)-2-methylbenzoic acid] reads less than 0.05 µM; that for `Cc1cc(OCCCc2c3n(c4c(-c5c(C)nn(C)c5C)c(Cl)ccc24)CCCN(c2cc(Cl)cc(C(=O)O)c2)C3=O)cc(C)c1Cl` [I-221, 3-chloro-5-(8-chloro-11-(3-(4-chloro-3,5-dimethylphenoxy)propyl)-1-oxo-7-(1,3,5-trimethyl-1H-pyrazol-4-yl)-4,5-dihydro-1H-[1,4]diazepino[1,2-a]indol-2(3H)-yl)benzoic acid], less than 0.05 µM. Still for that read-out and setting: as for `Cc1cc(OCCCc2c3n(c4c(-c5c(C)nn(C)c5C)c(Cl)ccc24)C(C)[C@@H](C)N(Cc2ccc(C(=O)O)cc2)C3=O)cc(C)c1Cl` (stereo partly drawn) [I-144, 4-(((3R)-7-chloro-10-(3-(4-chloro-3,5-dimethylphenoxy)propyl)-3,4-dimethyl-1-oxo-6-(1,3,5-trimethyl-1H-pyrazol-4-yl)-3,4-dihydropyrazino[1,2-a]indol-2(1H)-yl)methyl)benzoic acid], the figure is less than 0.05 µM; as for `Cc1cc(OCCCc2c3n(c4c(-c5c(C)nn(C)c5C)c(Cl)ccc24)CCC(C)NC3=O)cc(C)c1Cl` (stereo not shown) [I-114, 8-chloro-1-(3-(4-chloro-3,5-dimethylphenoxy)propyl)-3-methyl-7-(1,3,5-trimethyl-1H-pyrazol-4-yl)-2,3,4,5-tetrahydro-1H-[1,4]diazepino[1,2-a]indol-1-one], less than 0.05 µM; as for `Cc1cc(OCCCc2c3n(c4c(-c5c(C)nn(C)c5C)cccc24)CCCN(Cc2cc(Br)cc(C(=O)O)c2)C3=O)cc(C)c1Cl` [I-296, 3-bromo-5-((11-(3-(4-chloro-3,5-dimethylphenoxy)propyl)-1-oxo-7-(1,3,5-trimethyl-1H-pyrazol-4-yl)-4,5-dihydro-1H-[1,4]diazepino[1,2-a]indol-2(3H)-yl)methyl)benzoic acid], 0.051 to 0.1 µM. Same read-out and setting: the result for `Cc1cc(OCCCc2c(C(=O)NCc3ccc(C(=O)O)o3)[nH]c3c(-c4c(C)n[nH]c4C)cccc23)cc(C)c1Cl` [I-62, 5-((3-(3-(4-chloro-3,5-dimethylphenoxy)propyl)-7-(3,5-dimethyl-1H-pyrazol-4-yl)-1H-indole-2-carboxamido)methyl)furan-2-carboxylic acid] reads less than 0.05 µM.

As for `Cc1cc(OCCCc2c(C(=O)N3CCN(c4ccc(C(=O)O)cc4)CC3)[nH]c3cc(Cl)ccc23)cc(C)c1Cl` [I-51, 4-(4-(6-chloro-3-(3-(4-chloro-3,5-dimethylphenoxy)propyl)-1H-indole-2-carbonyl)piperazin-1-yl)benzoic acid], the Ki (Ki bins given in μM) lay in the range of 1 to 9.99 µM. `Cc1cc(OCCCc2c3n(c4c(-c5c(C)nn(C)c5C)c(Cl)ccc24)CCN(c2cc(C(=O)O)cc4c2ccn4C)C3=O)cc(C)c1Cl` [I-163, 4-(7-cholro-10-(3-(4-chloro-3,5-dimethylphenoxy)propyl)-1-oxo-6-(1,3,5-trimethyl-1H-pyrazol-4-yl)-3,4-dihydropyrazino[1,2-a]indol-2(1H)-yl)-1-methyl-1H-indole-6-carboxylic acid]: the Ki (Ki bins given in nM) was less than 0.05 µM. Still for that read-out and setting: as for `Cc1cc(OCCCc2c3n(c4c(-c5c(C)nn(C)c5C)c(Cl)ccc24)CCCN(c2cccc(C(=O)NS(=O)(=O)C4CC4)c2)C3=O)cc(C)c1Cl` [I-369, 3-(8-chloro-11-(3-(4-chloro-3,5-dimethylphenoxy)propyl)-1-oxo-7-(1,3,5-trimethyl-1H-pyrazol-4-yl)-4,5-dihydro-H-[1,4]diazepino[1,2-a]indol-2(3H)-yl)-N-(cyclopropylsulfonyl)benzamide], the figure is less than 0.05 µM; as for `Cc1cc(OCCCc2c3n(c4c(-c5c(C)nn(C)c5C)c(Cl)ccc24)C[C@@H](C)N(Cc2cccc(C(=O)O)c2)C3=O)cc(C)c1Cl` [I-121, (R)-3-((7-chloro-10-(3-(4-chloro-3,5-dimethylphenoxy)propyl)-3-methyl-1-oxo-6-(1,3,5-trimethyl-1H-pyrazol-4-yl)-3,4-dihydropyrazino[1,2-a]indol-2(1H)-yl)methyl)benzoic acid], less than 0.05 µM.

For the compound `Cc1cc(OCCCc2c3n(c4c(-c5c(C)nn(C)c5C)c(Cl)ccc24)CCCN(c2cc(C(=O)O)cc(-c4cccnc4C)c2)C3=O)cc(C)c1Cl` [I-232, 3-(8-chloro-11-(3-(4-chloro-3,5-dimethylphenoxy)propyl)-1-oxo-7-(1,3,5-trimethyl-1H-pyrazol-4-yl)-4,5-dihydro-1H-[1,4]diazepino[1,2-a]indol-2(3H)-yl)-5-(2-methylpyridin-3-yl)benzoic acid], where the note is “Ki bins given in nM”, the Ki was less than 0.05 µM.

Consider `Cc1cc(OCCCc2c3n(c4c(-c5c(C)nn(C)c5C)c(Cl)ccc24)CCCN(c2cccc(OC(F)(F)F)c2)C3=O)cc(C)c1Cl` [I-101, 8-chloro-11-(3-(4-chloro-3,5-dimethylphenoxy)propyl)-2-(3-(trifluoromethoxy)phenyl)-7-(1,3,5-trimethyl-1H-pyrazol-4-yl)-2,3,4,5-tetrahydro-1H-[1,4]diazepino[1,2-a]indol-1-one], for which the Ki (Ki bins given in nM) was in the range of 0.301 to 0.5 µM.

(Values after US10533010B2, “Substituted indole Mcl-1 inhibitors” (Vanderbilt University, priority 2014, dated 2020).)
